Test results published in patent US20040077687A1, “Thiazolmines and their use as tgf-beta inhibitors” (priority 2003, published 2004).

How the values were obtained:
[1] = tested on: TGF-β signalling (PAI-1 promoter luciferase reporter in HepG2 cells); test: Assay 1: PAI-1 promoter firefly luciferase reporter in HepG2 cells exposed to TGF-β; conditions: for IC50: Homo sapiens, HepG2, read-out: IC50 value in Assay 1
Experimental: The assay was performed in HepG2 cells stably transfected with the PAI-1 promoter (known to be a strong TGF-β responsive promoter) linked to a luciferase (firefly) reporter gene. The compounds were selected on their ability to inhibit luciferase activity in cells exposed to TGF-β. In addition cells were transfected with a second luciferase (Renilla) gene which was not driven by a TGF-β responsive promoter and was used as a toxicity control.
(96 well-)microplates are seeded, using a multidrop apparatus, with the stably transfected cell line at a concentration of 35000 cells per well in 200 μl of serum-containing medium. These plates are placed in a cell incubator.
18 to 24 hours later (Day 2), cell-incubation procedure is launched. Cells are incubated with TGF-β and a candidate compound (TGF-β inhibitor) at concentrations in the range 50 nM to 10 μM (final concentration of DMSO 1%). The final concentration of TGF-β (rhTGFβ1) used in the test is 1 ng/mL. […] The final volume of the test reaction is 150 μl. Each well contains only one candidate compound and its effect on the PAI-1 promoter is monitored.
Columns 11 and 12 are employed as controls. Column 11 contains 8 wells in which the cells are incubated in the presence of TGF-β, without a candidate compound. Column 11 is used to determine the ‘reference TGF-β induced firefly luciferase value’ against which values measured in the test wells (to quantify inhibitory activity) may be compared. In wells A12 to D12, cells are grown in medium without TGF-β. The firefly luciferase values obtained from these positions are representive of the ‘basal firefly luciferase activity’. In wells E12 to H12, cells are incubated in the presence of TGF-β and 500 μM CPO (Cyclopentenone, Sigma), a cell toxic compound.
12 to 18 hours later (day 3), the luciferase quantification procedure is launched. The following reactions are performed using reagents obtained from a Dual Luciferase Assay Kit (Promega). Cells are washed and lysed with the addition of 10 μl of passive lysis buffer (Promega). Following agitation (15 to 30 mins), luciferase activities of the plates are read in a dual-injector luminometer (BMG lumistar). For this purpose, 50 μl of luciferase assay reagent and 50 μl of ‘Stop & Glo’ buffer are injected sequentially to quantify the activities of both luciferases. The mean Luciferase activity value obtained in wells A11 to H11 (Column 11, TGF-βonly) is considered to represent 100% and values obtained in wells A12 to D12 (cells in medium alone) give a basal level (0%). For each of the compounds tested, a concentration response curve is constructed from which an IC50 value can be determined graphically.

O=C1C=CCC1 [CPO, Cyclopentenone, reference compound]
firefly and renilla luciferase activities relative to column 11 (TGF-β only); toxicity control ([1]; 500 μM CPO in the presence of TGF-β, HepG2 reporter cells): around 50%

Nc1nc(-c2ccccn2)c(-c2ccnc(-c3ccc(Cl)cc3)c2)s1 [Example 1, 5-[2-(4-Chlorophenyl)pyridin-4-yl]-4-pyridin-2-yl-1,3-thiazol-2-amine]
melting point: 256 to 257 °C
IC50 [1]: ≤ 5 µM

COc1ccc(-c2cc(-c3sc(N)nc3-c3ccccn3)ccn2)cc1 [Example 2, 5-[2-(4-Methoxyphenyl)pyridin-4-yl]-4-pyridin-2-yl-1,3-thiazol-2-amine]
melting point: 222 °C
IC50 [1]: ≤ 5 µM

Nc1nc(-c2ccccn2)c(-c2ccnc(-c3ccc(F)cc3)c2)s1 [Example 3, 5-[2-(4-Fluorophenyl)pyridin-4-yl]-4-pyridin-2-yl-1,3-thiazol-2-amine]
melting point: 250 °C
IC50 [1]: ≤ 5 µM

CCc1ccc(-c2cc(-c3sc(N)nc3-c3ccccn3)ccn2)cc1 [Example 4, 5-[2-(4-Ethylphenyl)pyridin-4-yl]-4-pyridin-2-yl-1,3-thiazol-2-amine]
melting point: 238 °C
IC50 [1]: ≤ 5 µM

CCOc1ccc(-c2cc(-c3sc(N)nc3-c3ccccn3)ccn2)cc1 [Example 5, 5-[2-(4-Ethoxyphenyl)pyridin-4-yl]-4-pyridin-2-yl-1,3-thiazol-2-amine]
melting point: 246 °C
IC50 [1]: ≤ 5 µM

Nc1nc(-c2ccccn2)c(-c2ccnc(-c3ccsc3)c2)s1 [Example 6, 5-[2-(Thiophen-3-yl)pyridin-4-yl]-4-pyridin-2-yl-1,3-thiazol-2-amine]
melting point: 244 °C
IC50 [1]: ≤ 5 µM
